In patent US11945833B2, “Prodrugs of L-BHDU and methods of treating viral infections” (priority 2021, dated 2024):
pEC50: −log10 of the molar value. Entries after “also recorded” stand apart in the source; their conditions may differ. Like-named read-outs stand apart in the source and are kept apart here.

What was measured:
[1] = test system: HSV-1; experiment: Anti-HSV-1 activity in Vero cells; type: cell-based, herpes simplex virus
Procedure: Additionally, all synthesized compounds were also tested in vitro against herpes simplex viruses (HSV-1, oral herpes) in Vero cells, FIG. 8.

[2] = test system: VZV-BAC-Luc; conditions: previous assay, HFFs infected with VZV-BAC-Luc; read-out: EC50 against VZV in HFFs; cited from earlier work
[3] = test system: VZV; conditions: cited from earlier work; for in vivo reduction in VZV growth compared to ACV and VACV: previous in vivo studies
[4] = test system: human foreskin fibroblast (HFFS) cells; conditions: cited from earlier work
[5] = test system: VZV-ORF57-Luc; experiment: Antiviral activity in ARPE-19 cells infected with VZV-ORF57-Luc; type: cell-based, Varicella-zoster virus; conditions: for in vitro anti-VZV activity (in words): VZV-ORF57-Luc
Procedure: To enhance the antiviral activity octadecyloxyethyl-L-BHDU (ODE-L-BHDU, 5) and hexadecyloxypropyl-L-BHDU (HDP-L-BHDU, 6), POM-L-BHDU (8), and POC-L-BDHU (14) (FIGS. 1-3, Schemes 1-3) prodrugs were synthesized with modifications to increase bioavailability and cell penetration. Their antiviral activity was evaluated in ARPE-19 cells infected with VZV-ORF57-Luc, a new reporter virus.

[6] = test system: human fibroblast (HFFs) cells; type: cell-based
Procedure: The cellular toxicity of synthesized analogs was determined on low passage of human fibroblast (HFFs) cells by performing 72 h of neutral red dye uptake and MTT cell proliferation assays.

[7] = test system: VZV-ORF57-Luc; experiment: NuSkin mouse model of VZV replication (adult human skin xenografts), bioluminescence imaging; type: in vivo, Athymic Nude mice; conditions: for in vivo antiviral activity against VZV (in words): s.c. once daily days 3-9 post-infection, equimolar to cidofovir 10 mg/kg; for dose effective in vivo: subcutaneous (s.c.); for activity compared with cidofovir in repeated in vivo studies: subcutaneous (s.c.) as well as oral route, cidofovir 10 mg/Kg
Procedure: Mice were treated with vehicle or drugs, and virus yield was measured by bioluminescence imaging. VZV growth rate for individual mice (symbols) and the average for the group (bars) are shown in (A) and (B). […] The overall significance on day 10 post-inoculation (DPI 10) is p=0.0352 (one-way ANOVA). ** p<0.01 for OED-L-BHDU & POM-L-BHDU and (student's t test with Welch's correction). Cidofovir group (i.p.) has an average fold change of 2-5 on DPI 10. (B).

[8] = test system: HSV-2; experiment: Anti-HSV-2 activity in Vero cells, bioluminescence imaging; type: cell-based, herpes simplex virus
Procedure: HSV-2 yield was determined by bioluminescence imaging. Each point represents the mean±standard deviation of a triplicate sample
Furthermore, antiviral activity of these analogs was tested in vitro against the HSV-2 (genital herpes) in Vero cells using acyclovir as a standard drug reference. […] All other analogs, including L-BDHU, were found ineffective against the HSV-2 (FIG. 11, Table 3). After these findings, it was determined that POM-L-BHDU […] has potential against the HSV-1 & HSV-2. Further in vivo evaluation of POM prodrug of the L-BDHU will confirm activity.

[9] = test system: VZV; experiment: Topical treatment of VZV in human skin explant model; conditions: formulated in cocoa butter
Source text: (§1) Each compound was formulated in Cocoa Butter and applied topically. POM was formulated in equimolar concentrations to 0.1% L-BHDU.

[10] = test system: HSV1; experiment: Topical treatment of HSV1 in human skin explant model; conditions: formulated in cocoa butter
Source text: as §1

[11] = test system: Vero Cells
[12] = target: T1, dihydropyridine dehydrogenase (Homo sapiens, UniProt Q12882); conditions: cited from earlier work
T1 sequence (Q12882 4-1025): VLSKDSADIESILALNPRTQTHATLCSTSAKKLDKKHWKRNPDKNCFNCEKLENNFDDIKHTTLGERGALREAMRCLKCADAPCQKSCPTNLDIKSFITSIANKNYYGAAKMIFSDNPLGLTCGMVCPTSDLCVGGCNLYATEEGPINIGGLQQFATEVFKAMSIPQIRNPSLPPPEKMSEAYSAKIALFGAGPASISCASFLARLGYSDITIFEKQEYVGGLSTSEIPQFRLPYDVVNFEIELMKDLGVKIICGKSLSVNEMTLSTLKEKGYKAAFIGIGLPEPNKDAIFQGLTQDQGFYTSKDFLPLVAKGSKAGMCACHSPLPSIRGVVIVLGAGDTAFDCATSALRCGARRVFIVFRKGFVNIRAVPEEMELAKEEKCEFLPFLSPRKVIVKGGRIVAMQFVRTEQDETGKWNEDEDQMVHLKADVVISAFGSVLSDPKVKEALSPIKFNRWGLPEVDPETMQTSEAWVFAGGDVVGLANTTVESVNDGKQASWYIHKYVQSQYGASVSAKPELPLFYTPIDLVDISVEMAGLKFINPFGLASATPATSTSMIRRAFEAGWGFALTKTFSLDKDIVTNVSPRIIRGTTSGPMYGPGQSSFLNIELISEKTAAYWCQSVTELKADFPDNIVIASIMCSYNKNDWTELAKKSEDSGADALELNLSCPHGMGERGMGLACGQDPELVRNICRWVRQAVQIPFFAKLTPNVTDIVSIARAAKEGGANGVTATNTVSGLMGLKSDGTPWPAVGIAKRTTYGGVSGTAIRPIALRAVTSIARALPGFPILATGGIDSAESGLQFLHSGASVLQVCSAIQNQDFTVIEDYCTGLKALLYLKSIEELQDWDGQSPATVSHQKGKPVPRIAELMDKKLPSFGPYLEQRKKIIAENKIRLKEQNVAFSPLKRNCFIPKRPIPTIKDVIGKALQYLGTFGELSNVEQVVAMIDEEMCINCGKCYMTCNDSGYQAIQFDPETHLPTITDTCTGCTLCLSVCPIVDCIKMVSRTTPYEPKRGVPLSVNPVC

[13] = cited from earlier work
[14] = test system: cell-associated VZV-ORF57-Luc; experiment: Antiviral screening against cell-associated VZV-ORF57-Luc in ARPE-19 cells; type: cell-based, Varicella-zoster virus
Procedure: Cidofovir and acyclovir are positive controls. Each symbol represents the average of 6 replicate wells; the line is the best fit curve (error bars omitted for clarity).
These studies were performed in the same manner as the efficacy studies described above, except cell-associated VZV-ORF57-Luc, VZV-ORF57-ΔTK, VZV-ORF57-ΔTS and VZV-ORF57-ΔTKTS were used to infect ARPE-19 cells. As before, CDV and ACV were used as positive controls.

[15] = Tolerability and weight change in NuSkin mice; conditions: male and female mice
[16] = read-out: EC50 against VZV-ORF57-Luc

Nc1nc2c(ncn2COCCO)c(=O)[nH]1 [acyclovir, reference compound]
pEC50 ([1]; Human alphaherpesvirus 1, read-out: EC50 against HSV-1): 7.13

CC(C)C(N)C(=O)OCC1OCC(n2cc(/C=C/Br)c(=O)[nH]c2=O)O1 [L-valyl-L-BHDU]
pEC50 [2]: 7.52 | in vivo reduction in VZV growth compared to ACV and VACV [3]: significant reduction in VZV growth | CC50 [4]: 200000 nM

CCCCCCCCCCCCCCCCOCCCOP(=O)(O)OC[C@H]1OC[C@@H](n2cc(/C=C/Br)c(=O)[nH]c2=O)O1 [HDP-L-BHDU, hexadecyloxypropyl-L-BHDU]
in vitro anti-VZV activity (in words) [5]: lower antiviral activity relative to L-BHDU; also recorded: lower in vitro activity than the parental molecule | pEC50 [5, 16]: 6.05 | CC50 [6]: 10000 nM

O=c1[nH]c(=O)n([C@@H]2CO[C@H](CO)O2)cc1/C=C/Br [L-BHDU]
pEC50 ([5]; read-out: EC50 against VZV in ARPE-19s): 7.66 | pEC50 [5, 16]: 7.66 | CC50 [6]: > 100000 nM | effect on cellular proliferation [6]: did not affect cellular proliferation | in vivo antiviral activity against VZV (in words) [7]: ineffective | anti-HSV-1 activity (in words) [1]: good activity | pEC50 ([1]; read-out: EC50 against HSV-1): 8.15 | anti-HSV-2 activity (in words) ([8]; listed as L-BDHU): ineffective; also recorded: inactive | prevention of VZV spread in adult human skin [9]: highly effective | prevention of HSV1 spread in adult human skin [10]: highly effective | pEC50 [2]: 6.66 | CC50 [11]: > 100000 nM | dose effective in SCID-Hu mouse model of VZV replication ([3]; human fetal skin): 15 mg/kg | in vivo reduction in VZV growth compared to ACV and VACV [3]: significant reduction in VZV growth | inhibition of dihydropyridine dehydrogenase activity [12]: does not inhibit | levels in mouse organs [13]: reached high levels in mouse organs but not in the brain | well tolerated dose ([13]; mouse, in vivo): up to 150 mg/kg

CCCCCCCCCCCCCCCCCCOCCOP(=O)(O)OC[C@H]1OC[C@@H](n2cc(/C=C/Br)c(=O)[nH]c2=O)O1 [ODE-L-BHDU, L-BHDU-5′-[(2-octadecyloxyethyl)phosphate]]
in vitro anti-VZV activity (in words) [5]: lower antiviral activity relative to L-BHDU | in vitro anti-VZV activity (in words) ([5]; listed as OED-L-BHDU): lower in vitro activity than the parental molecule | pEC50 [5, 16]: 7.17 | in vivo antiviral activity against VZV (in words) [7]: better antiviral activity in comparison to L-BHDU; also recorded: most active | in vivo antiviral activity against VZV (in words) ([7]; listed as OED-L-BHDU): superior antiviral potency compared to L-BHDU; also recorded: significantly enhanced in vivo antiviral activity in comparison to L-BHDU | dose effective in vivo [7]: around 25 mg/kg/day | activity compared with cidofovir in repeated in vivo studies [7]: more active than the cidofovir | anti-HSV-1 activity (in words) [1]: good activity | pEC50 ([1]; read-out: EC50 against HSV-1): 6.12 | potency against cell-associated VZV-ORF57-Luc compared to CDV or ACV [14]: less potent compared to CDV | concentration at which cellular cytotoxicity was exhibited [11]: 20 µM | tolerability / toxicity in mice [15]: without significant toxicity | tolerability / toxicity in mice ([15]; listed as OED-L-BHDU): well-tolerated

CC(C)OC(=O)OCOP(=O)(OCOC(=O)OC(C)C)OC[C@H]1OC[C@@H](n2cc(/C=C/Br)c(=O)[nH]c2=O)O1 [POC-L-BHDU, Bis (POC) prodrug L-BHDU]
in vitro anti-VZV activity (in words) [5]: significant anti-VZV activity; also recorded: good antiviral efficacy | in vitro anti-VZV activity (in words) ([5]; listed as POC (14)): better in vitro and in vivo activity in comparison to L-BDHU | pEC50 [5, 16]: 7.47 | CC50 [6]: > 100000 nM | effect on cellular proliferation [6]: did not affect cellular proliferation | in vivo antiviral activity against VZV (in words) [7]: ineffective | in vivo antiviral activity against VZV (in words) ([7]; listed as POC (14)): better in vitro and in vivo activity in comparison to L-BDHU | anti-HSV-1 activity (in words) [1]: good activity | pEC50 ([1]; read-out: EC50 against HSV-1): 7.59 | CC50 [11]: > 100000 nM

CC(C)(C)C(=O)OCOP(=O)(OCOC(=O)C(C)(C)C)OC[C@H]1OC[C@@H](n2cc(/C=C/Br)c(=O)[nH]c2=O)O1 [POM-L-BHDU]
in vitro anti-VZV activity (in words) [5]: significant anti-VZV activity; also recorded: good antiviral efficacy; also recorded: enhanced antiviral potency in comparison to L-BHDU | in vitro anti-VZV activity (in words) ([5]; listed as POM (8)): better in vitro and in vivo activity in comparison to L-BDHU | CC50 [6]: > 100000 nM | effect on cellular proliferation [6]: did not affect cellular proliferation | oral in vivo effectiveness in comparison to cidofovir (ip route) ([7]; oral, FIG. 6B): orally equal effective in comparison to cidofovir | in vivo antiviral activity against VZV (in words) [7]: most active; also recorded: superior antiviral potency compared to L-BHDU; also recorded: retained its antiviral potency; also recorded: better activity compared to parental molecule | in vivo antiviral activity against VZV (in words) ([7]; listed as POM (8)): better in vitro and in vivo activity in comparison to L-BDHU | dose effective in vivo [7]: around 25 mg/kg/day | activity compared with cidofovir in repeated in vivo studies [7]: more active than the cidofovir | pEC50 ([1]; read-out: EC50 against HSV-1): 7.55 | anti-HSV-2 activity (in words) [8]: active | anti-HSV-2 activity (in words) ([8]; listed as POM-L-BDHU): significant activity | pEC50 ([8]; read-out: EC50 against HSV-2): 5.85 | prevention of VZV spread in adult human skin [9]: highly effective | prevention of HSV1 spread in adult human skin [10]: highly effective | prevention of HSV1 spread in adult human skin ([10]; listed as L-BHDU-POM): highly effective; also recorded: more effective than topical acyclovir 0.5% | CC50 [11]: > 100000 nM | tolerability / toxicity in mice [15]: without significant toxicity | tolerability / toxicity in mice ([15]; listed as POM-L-BDHU): well-tolerated

Nc1ccn(C[C@@H](CO)OCP(=O)(O)O)c(=O)n1 [Cidofovir, cidofovir, reference compound]
average fold change on DPI 10 ([7]; i.p., day 10 post-inoculation): 2-5 fold
